Results from PubChem BioAssay (NCI).
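Following 48 hours of exposure in 96-well plates, responses at five concentrations were used to interpolate endpoints linearly. Abbreviation: GI50, concentration required for 50% inhibition of growth. TGI marks complete inhibition of growth.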

Experiments:
Assay in all cases: NCI anticancer screen, dose series, 48 h
786-0 renal = test system: 786-0 renal
A498 renal = test system: A498 renal
A549 NSCLC = test system: A549 NSCLC
ACHN renal = test system: ACHN renal
CAKI-1 renal = test system: CAKI-1 renal
CCRF-CEM leukemia = test system: CCRF-CEM leukemia
COLO 205 colon = test system: COLO 205 colon
DU-145 prostate = test system: DU-145 prostate
EKVX NSCLC = test system: EKVX NSCLC
HCC-2998 colon = test system: HCC-2998 colon
HCT-116 colon = test system: HCT-116 colon
HCT-15 colon = test system: HCT-15 colon
HOP-62 NSCLC = test system: HOP-62 NSCLC
HOP-92 NSCLC = test system: HOP-92 NSCLC
HS 578T breast = test system: HS 578T breast
HT29 colon = test system: HT29 colon
IGROV1 ovarian = test system: IGROV1 ovarian
K-562 leukemia = test system: K-562 leukemia
KM12 colon = test system: KM12 colon
LOX IMVI melanoma = test system: LOX IMVI melanoma
M14 melanoma = test system: M14 melanoma
MALME-3M melanoma = test system: MALME-3M melanoma
MCF7 breast = test system: MCF7 breast
MDA-MB-231 breast = test system: MDA-MB-231 breast
MDA-MB-435 = test system: MDA-MB-435
MOLT-4 leukemia = test system: MOLT-4 leukemia
NCI-H23 lung = test system: NCI-H23 lung
NCI-H460 lung = test system: NCI-H460 lung
NCI-H522 lung = test system: NCI-H522 lung
NCI/ADR-RES ovarian = test system: NCI/ADR-RES ovarian
OVCAR-3 ovarian = test system: OVCAR-3 ovarian
OVCAR-5 ovarian = test system: OVCAR-5 ovarian
OVCAR-8 ovarian = test system: OVCAR-8 ovarian
PC-3 prostate = test system: PC-3 prostate
RPMI-8226 leukemia = test system: RPMI-8226 leukemia
RXF 393 renal = test system: RXF 393 renal
SF-268 CNS = test system: SF-268 CNS
SF-295 CNS = test system: SF-295 CNS
SF-539 CNS = test system: SF-539 CNS
SK-MEL-2 melanoma = test system: SK-MEL-2 melanoma
SK-MEL-28 melanoma = test system: SK-MEL-28 melanoma
SK-MEL-5 melanoma = test system: SK-MEL-5 melanoma
SK-OV-3 ovarian = test system: SK-OV-3 ovarian
SN12C renal = test system: SN12C renal
SNB-19 CNS = test system: SNB-19 CNS
SNB-75 CNS = test system: SNB-75 CNS
SW-620 colon = test system: SW-620 colon
T-47D breast = test system: T-47D breast
TK-10 renal = test system: TK-10 renal
U251 CNS = test system: U251 CNS
UACC-257 melanoma = test system: UACC-257 melanoma
UACC-62 melanoma = test system: UACC-62 melanoma
UO-31 renal = test system: UO-31 renal
BT-549 breast = test system: BT-549 breast
NCI-H226 lung = test system: NCI-H226 lung
OVCAR-4 ovarian = test system: OVCAR-4 ovarian
SR leukemia = test system: SR leukemia

Structure (SMILES): C[C@H]1[C@H](C)CC[C@]2(CO)CC[C@]3(C)C(=CC[C@@H]4[C@@]5(C)CCCNC(C)(C)[C@@H]5CC[C@]43C)[C@H]12
- GI50 (786-0 renal): 1.6 µM
- TGI (786-0 renal): 3.06 µM
- GI50 (A498 renal): 1.63 µM
- TGI (A498 renal): 3.29 µM
- GI50 (A549 NSCLC): 1.74 µM
- TGI (A549 NSCLC): 3.28 µM
- GI50 (ACHN renal): 1.69 µM
- TGI (ACHN renal): 3.06 µM
- GI50 (CAKI-1 renal): 1.62 µM
- TGI (CAKI-1 renal): 3.23 µM
- GI50 (CCRF-CEM leukemia): 1.74 µM
- TGI (CCRF-CEM leukemia): 3.93 µM
- GI50 (COLO 205 colon): 1.74 µM
- TGI (COLO 205 colon): 3.46 µM
- GI50 (DU-145 prostate): 1.72 µM
- TGI (DU-145 prostate): 3.14 µM
- GI50 (EKVX NSCLC): 1.66 µM
- TGI (EKVX NSCLC): 3.29 µM
- GI50 (HCC-2998 colon): 1.75 µM
- TGI (HCC-2998 colon): 3.46 µM
- GI50 (HCT-116 colon): 1.49 µM
- TGI (HCT-116 colon): 2.81 µM
- GI50 (HCT-15 colon): 1.37 µM
- TGI (HCT-15 colon): 2.75 µM
- GI50 (HOP-62 NSCLC): 1.81 µM
- TGI (HOP-62 NSCLC): 3.43 µM
- GI50 (HOP-92 NSCLC): 1.52 µM
- TGI (HOP-92 NSCLC): 3.19 µM
- GI50 (HS 578T breast): 2.05 µM
- TGI (HS 578T breast): 4.86 µM
- GI50 (HT29 colon): 0.628 µM
- TGI (HT29 colon): 1.97 µM
- GI50 (IGROV1 ovarian): 1.85 µM
- TGI (IGROV1 ovarian): 3.72 µM
- GI50 (K-562 leukemia): 0.471 µM
- TGI (K-562 leukemia): 2.02 µM
- GI50 (KM12 colon): 1.84 µM
- TGI (KM12 colon): 3.51 µM
- GI50 (LOX IMVI melanoma): 1.59 µM
- TGI (LOX IMVI melanoma): 3.05 µM
- GI50 (M14 melanoma): 1.61 µM
- TGI (M14 melanoma): 3.12 µM
- GI50 (MALME-3M melanoma): 1.68 µM
- TGI (MALME-3M melanoma): 3.44 µM
- GI50 (MCF7 breast): 1.58 µM
- TGI (MCF7 breast): 3.39 µM
- GI50 (MDA-MB-231 breast): 1.88 µM
- TGI (MDA-MB-231 breast): 3.48 µM
- GI50 (MDA-MB-435): 1.59 µM
- TGI (MDA-MB-435): 3.21 µM
- GI50 (MOLT-4 leukemia): 1.37 µM
- TGI (MOLT-4 leukemia): 3.15 µM
- GI50 (NCI-H23 lung): 1.65 µM
- TGI (NCI-H23 lung): 3.26 µM
- GI50 (NCI-H460 lung): 1.78 µM
- TGI (NCI-H460 lung): 3.35 µM
- GI50 (NCI-H522 lung): 1.71 µM
- TGI (NCI-H522 lung): 3.32 µM
- GI50 (NCI/ADR-RES ovarian): 1.76 µM
- TGI (NCI/ADR-RES ovarian): 3.47 µM
- GI50 (OVCAR-3 ovarian): 1.83 µM
- TGI (OVCAR-3 ovarian): 3.42 µM
- GI50 (OVCAR-5 ovarian): 1.69 µM
- TGI (OVCAR-5 ovarian): 3.18 µM
- GI50 (OVCAR-8 ovarian): 1.96 µM
- TGI (OVCAR-8 ovarian): 3.61 µM
- GI50 (PC-3 prostate): 1.55 µM
- TGI (PC-3 prostate): 2.96 µM
- GI50 (RPMI-8226 leukemia): 1.85 µM
- TGI (RPMI-8226 leukemia): 4.14 µM
- GI50 (RXF 393 renal): 1.81 µM
- TGI (RXF 393 renal): 3.51 µM
- GI50 (SF-268 CNS): 1.79 µM
- TGI (SF-268 CNS): 3.5 µM
- GI50 (SF-295 CNS): 1.64 µM
- TGI (SF-295 CNS): 3.06 µM
- GI50 (SF-539 CNS): 1.69 µM
- TGI (SF-539 CNS): 3.16 µM
- GI50 (SK-MEL-2 melanoma): 1.9 µM
- TGI (SK-MEL-2 melanoma): 3.63 µM
- GI50 (SK-MEL-28 melanoma): 1.75 µM
- TGI (SK-MEL-28 melanoma): 3.3 µM
- GI50 (SK-MEL-5 melanoma): 1.7 µM
- TGI (SK-MEL-5 melanoma): 3.09 µM
- GI50 (SK-OV-3 ovarian): 2.54 µM
- TGI (SK-OV-3 ovarian): 6.97 µM
- GI50 (SN12C renal): 1.64 µM
- TGI (SN12C renal): 3.11 µM
- GI50 (SNB-19 CNS): 1.86 µM
- TGI (SNB-19 CNS): 3.43 µM
- GI50 (SNB-75 CNS): 1.49 µM
- TGI (SNB-75 CNS): 2.9 µM
- GI50 (SW-620 colon): 1.79 µM
- TGI (SW-620 colon): 3.54 µM
- GI50 (T-47D breast): 1.68 µM
- TGI (T-47D breast): 4.03 µM
- GI50 (TK-10 renal): 1.84 µM
- TGI (TK-10 renal): 3.32 µM
- GI50 (U251 CNS): 1.67 µM
- TGI (U251 CNS): 3.15 µM
- GI50 (UACC-257 melanoma): 1.95 µM
- TGI (UACC-257 melanoma): 3.7 µM
- GI50 (UACC-62 melanoma): 1.85 µM
- TGI (UACC-62 melanoma): 3.35 µM
- GI50 (UO-31 renal): 1.54 µM
- TGI (UO-31 renal): 2.99 µM

Structure (SMILES): Nc1ncnc2c1ncn2C=C=CCO
- TGI (A498 renal): > 100 µM
- TGI (BT-549 breast): > 100 µM
- TGI (CAKI-1 renal): > 100 µM
- TGI (CCRF-CEM leukemia): > 100 µM
- TGI (COLO 205 colon): > 100 µM
- TGI (DU-145 prostate): > 100 µM
- TGI (HCC-2998 colon): > 100 µM
- TGI (HCT-116 colon): > 100 µM
- TGI (HCT-15 colon): > 100 µM
- TGI (HOP-62 NSCLC): > 100 µM
- TGI (HOP-92 NSCLC): > 100 µM
- TGI (HS 578T breast): > 100 µM
- TGI (HT29 colon): > 100 µM
- TGI (K-562 leukemia): > 100 µM
- TGI (KM12 colon): > 100 µM
- TGI (LOX IMVI melanoma): > 100 µM
- TGI (M14 melanoma): > 100 µM
- TGI (MALME-3M melanoma): > 100 µM
- TGI (MCF7 breast): > 100 µM
- TGI (MDA-MB-231 breast): > 100 µM
- TGI (MDA-MB-435): > 100 µM
- TGI (MOLT-4 leukemia): > 100 µM
- TGI (NCI-H226 lung): > 100 µM
- TGI (NCI-H23 lung): > 100 µM
- TGI (NCI-H460 lung): > 100 µM
- TGI (NCI/ADR-RES ovarian): > 100 µM
- TGI (OVCAR-3 ovarian): > 100 µM
- TGI (OVCAR-4 ovarian): > 100 µM
- TGI (OVCAR-5 ovarian): > 100 µM
- TGI (OVCAR-8 ovarian): > 100 µM
- TGI (PC-3 prostate): > 100 µM
- TGI (RPMI-8226 leukemia): > 100 µM
- TGI (RXF 393 renal): > 100 µM
- TGI (SF-295 CNS): > 100 µM
- TGI (SK-MEL-2 melanoma): > 100 µM
- TGI (SK-MEL-28 melanoma): > 100 µM
- TGI (SK-MEL-5 melanoma): > 100 µM
- TGI (SN12C renal): > 100 µM
- TGI (SNB-19 CNS): > 100 µM
- TGI (SNB-75 CNS): > 100 µM
- TGI (SR leukemia): > 100 µM
- TGI (SW-620 colon): > 100 µM
- TGI (T-47D breast): > 100 µM
- TGI (TK-10 renal): > 100 µM
- TGI (U251 CNS): > 100 µM
- TGI (UACC-257 melanoma): > 100 µM
- TGI (UO-31 renal): > 100 µM
